Assay: recombinant UMI read abundance after kanamycin selection (control-corrected) (log10(CPM+1)); higher = more efficient recombination; extreme values may be limits of the assay; sequences stand for … in AGTGCAGAGAAAATCGGCCAGTTTTCTCTGCCTGCAGTCCGCATGCCGTGGGACCCCTTGGGTTCTAACCTGTTGCCTAGATTTATGCAGCGGACTGCCTTTCTCCCAAAGTGATAAACCGG…AGGTTGGTTTCACT; site = the 11-nt donor
Method in brief: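 In Escherichia coli, a pool of donor and donor-binding-loop pairs, each with a 12-nt UMI, was tested for the IS621 bridge recombinase. Plating was on IPTG (0.07 mM) plus kanamycin, or without selection, in two replicates. Recombinant UMIs were amplified by PCR across the donor–target junction and sequenced, and counts were reported as log10(CPM+1) after averaging and control-derived scaling.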
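Further: IS621 bridge recombinase in Escherichia coli cells against a fixed T5 target plasmid.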

With “AGGGCCTCATGGACCGGTTTTCCCGGTAATCCGTATTTGCT (site AGGGCCTCTAG)” the “recombinant UMI read abundance (log10)” value was 2.95.
For “AGGGGCGCATGGACCGGTTTTCCCGGTAATCCGTATTTGCC (site AGGGGCGCTGG)”, the “recombinant UMI read abundance (log10)” value was 3.25.
With “AGGGGTCCATGGACCGGTTTTCCCGGTAATCCGTATTTGCT (site AGGGGTCCTAG)” the “recombinant UMI read abundance (log10)” value was 0.704.
For “AGGGTCACATGGACCGGTTTTCCCGGTAATCCGTATTTGAG (site AGGGTCACTCT)”, the “recombinant UMI read abundance (log10)” value was 1.39.
For “AGGGTCCCATGGACCGGTTTTCCCGGTAATCCGTATTTGTG (site AGGATCCCTCA)”, the “recombinant UMI read abundance (log10)” value was 0.239.
For “AGGGTCCCATGGACCGGTTTTCCCGGTAATCCGTATTTGTG (site AGGCTCCCTCA)”, the “recombinant UMI read abundance (log10)” value was 0.0118.
For “AGGGTCCCATGGACCGGTTTTCCCGGTAATCCGTATTTGTG (site AGGGTCCCTCA)”, the “recombinant UMI read abundance (log10)” value was 0.304.
In the case of “AGGGTCCCATGGACCGGTTTTCCCGGTAATCCGTATTTGTG (site AGGTTCCCTCA)”, the “recombinant UMI read abundance (log10)” value is reported as 0.0182.
With “AGGGTGCCATGGACCGGTTTTCCCGGTAATCCGTATTTGGG (site AGGGTGCCTCC)” the “recombinant UMI read abundance (log10)” value was 0.0268.
In the case of “AGGGTTCCATGGACCGGTTTTCCCGGTAATCCGTATTTGGT (site AGGGTTCCTAC)”, the “recombinant UMI read abundance (log10)” value is reported as 0.793.
In the case of “AGGGTTTCATGGACCGGTTTTCCCGGTAATCCGTATTTGAA (site AGGGTTTCTTT)”, the “recombinant UMI read abundance (log10)” value is reported as 2.46.
For “AGGTACTCATGGACCGGTTTTCCCGGTAATCCGTATTTGAC (site AGGTACTCTGT)”, the “recombinant UMI read abundance (log10)” value was 3.57.
In the case of “AGGTAGACATGGACCGGTTTTCCCGGTAATCCGTATTTGAA (site AGGAAGACTTG)”, the “recombinant UMI read abundance (log10)” value is reported as 0.
With “AGGTAGACATGGACCGGTTTTCCCGGTAATCCGTATTTGAA (site AGGTAGACTTT)” the “recombinant UMI read abundance (log10)” value was 1.89.
In the case of “AGGTCAGCATGGACCGGTTTTCCCGGTAATCCGTATTTGGG (site AGATCAGCTCC)”, the “recombinant UMI read abundance (log10)” value is reported as 0.0289.
In the case of “AGGTCAGCATGGACCGGTTTTCCCGGTAATCCGTATTTGGG (site AGCTCAGCTCC)”, the “recombinant UMI read abundance (log10)” value is reported as 0.0149.
With “AGGTCAGCATGGACCGGTTTTCCCGGTAATCCGTATTTGGG (site AGGTCAGCTCC)” the “recombinant UMI read abundance (log10)” value was 0.00675.
With “AGGTCAGCATGGACCGGTTTTCCCGGTAATCCGTATTTGGG (site AGTTCAGCTCC)” the “recombinant UMI read abundance (log10)” value was 0.0281.
For “AGGTCATCATGGACCGGTTTTCCCGGTAATCCGTATTTGCT (site AGGTCATCTAG)”, the “recombinant UMI read abundance (log10)” value was 1.48.
In the case of “AGGTCATCATGGACCGGTTTTCCCGGTAATCCGTATTTGCT (site CGATCATCTAG)”, the “recombinant UMI read abundance (log10)” value is reported as 0.
For “AGGTCGGCATGGACCGGTTTTCCCGGTAATCCGTATTTGGC (site AGGTCGGCTGC)”, the “recombinant UMI read abundance (log10)” value was 2.13.
In the case of “AGGTTCACATGGACCGGTTTTCCCGGTAATCCGTATTTGTG (site AGGTTCACTCA)”, the “recombinant UMI read abundance (log10)” value is reported as 0.0184.
In the case of “AGGTTCACATGGACCGGTTTTCCCGGTAATCCGTATTTGTG (site AGGTTCCCTCA)”, the “recombinant UMI read abundance (log10)” value is reported as 0.
With “AGGTTCACATGGACCGGTTTTCCCGGTAATCCGTATTTGTG (site AGGTTCGCTCA)” the “recombinant UMI read abundance (log10)” value was 0.00639.
For “AGGTTCACATGGACCGGTTTTCCCGGTAATCCGTATTTGTG (site AGGTTCTCTCA)”, the “recombinant UMI read abundance (log10)” value was 0.00699.
In the case of “AGGTTCCCATGGACCGGTTTTCCCGGTAATCCGTATTTGCG (site AGGTTCCCTCA)”, the “recombinant UMI read abundance (log10)” value is reported as 0.0159.
With “AGGTTCCCATGGACCGGTTTTCCCGGTAATCCGTATTTGCG (site AGGTTCCCTCC)” the “recombinant UMI read abundance (log10)” value was 0.0204.
In the case of “AGGTTCCCATGGACCGGTTTTCCCGGTAATCCGTATTTGCG (site AGGTTCCCTCG)”, the “recombinant UMI read abundance (log10)” value is reported as 0.236.
For “AGGTTCCCATGGACCGGTTTTCCCGGTAATCCGTATTTGCG (site AGGTTCCCTCT)”, the “recombinant UMI read abundance (log10)” value was 0.00665.
For “AGGTTCCCATGGACCGGTTTTCCCGGTAATCCGTATTTGGT (site AGGTTCCCTAC)”, the “recombinant UMI read abundance (log10)” value was 0.474.
For “AGGTTCTCATGGACCGGTTTTCCCGGTAATCCGTATTTGTG (site AGGTTCACTCA)”, the “recombinant UMI read abundance (log10)” value was 0.205.
With “AGGTTCTCATGGACCGGTTTTCCCGGTAATCCGTATTTGTG (site AGGTTCCCTCA)” the “recombinant UMI read abundance (log10)” value was 0.22.
With “AGGTTCTCATGGACCGGTTTTCCCGGTAATCCGTATTTGTG (site AGGTTCGCTCA)” the “recombinant UMI read abundance (log10)” value was 0.0171.
For “AGGTTCTCATGGACCGGTTTTCCCGGTAATCCGTATTTGTG (site AGGTTCTCTCA)”, the “recombinant UMI read abundance (log10)” value was 2.32.
In the case of “AGGTTTCCATGGACCGGTTTTCCCGGTAATCCGTATTTGTG (site AGGTTACCTCA)”, the “recombinant UMI read abundance (log10)” value is reported as 0.0337.
With “AGGTTTCCATGGACCGGTTTTCCCGGTAATCCGTATTTGTG (site AGGTTCCCTCA)” the “recombinant UMI read abundance (log10)” value was 0.192.
In the case of “AGGTTTCCATGGACCGGTTTTCCCGGTAATCCGTATTTGTG (site AGGTTGCCTCA)”, the “recombinant UMI read abundance (log10)” value is reported as 0.00446.
In the case of “AGGTTTCCATGGACCGGTTTTCCCGGTAATCCGTATTTGTG (site AGGTTTCCTCA)”, the “recombinant UMI read abundance (log10)” value is reported as 0.271.
In the case of “AGTAACGCATGGACCGGTTTTCCCGGTAATCCGTATTTGGG (site AGTAACGCTCC)”, the “recombinant UMI read abundance (log10)” value is reported as 0.161.
In the case of “AGTAAGACATGGACCGGTTTTCCCGGTAATCCGTATTTGAG (site AGTAAGACTCT)”, the “recombinant UMI read abundance (log10)” value is reported as 1.72.
For “AGTAAGACATGGACCGGTTTTCCCGGTAATCCGTATTTGCA (site AGAAAGACTTG)”, the “recombinant UMI read abundance (log10)” value was 1.66.
For “AGTAAGACATGGACCGGTTTTCCCGGTAATCCGTATTTGCA (site AGCAAGACTTG)”, the “recombinant UMI read abundance (log10)” value was 2.39.
With “AGTAAGACATGGACCGGTTTTCCCGGTAATCCGTATTTGCA (site AGGAAGACTTG)” the “recombinant UMI read abundance (log10)” value was 1.31.
With “AGTAAGACATGGACCGGTTTTCCCGGTAATCCGTATTTGCA (site AGTAAGACTTG)” the “recombinant UMI read abundance (log10)” value was 2.57.
With “AGTAAGACATGGACCGGTTTTCCCGGTAATCCGTATTTGCC (site AGGAAGACTTG)” the “recombinant UMI read abundance (log10)” value was 0.00684.
For “AGTAAGACATGGACCGGTTTTCCCGGTAATCCGTATTTGCC (site AGTAAGACTGG)”, the “recombinant UMI read abundance (log10)” value was 2.13.
With “AGTAATCCATGGACCGGTTTTCCCGGTAATCCGTATTTGGT (site AGTAATCCTAC)” the “recombinant UMI read abundance (log10)” value was 0.00506.
With “AGTACAGCATGGACCGGTTTTCCCGGTAATCCGTATTTGCC (site AGTACAGCTGG)” the “recombinant UMI read abundance (log10)” value was 2.27.
For “AGTACTACATGGACCGGTTTTCCCGGTAATCCGTATTTGAC (site AGAACTACTGT)”, the “recombinant UMI read abundance (log10)” value was 0.731.
In the case of “AGTACTACATGGACCGGTTTTCCCGGTAATCCGTATTTGAC (site AGCACTACTGT)”, the “recombinant UMI read abundance (log10)” value is reported as 0.
For “AGTACTACATGGACCGGTTTTCCCGGTAATCCGTATTTGAC (site AGGACTACTGT)”, the “recombinant UMI read abundance (log10)” value was 1.71.
With “AGTACTACATGGACCGGTTTTCCCGGTAATCCGTATTTGAC (site AGTACTACTGT)” the “recombinant UMI read abundance (log10)” value was 1.28.
For “AGTACTGCATGGACCGGTTTTCCCGGTAATCCGTATTTGGT (site AGTACTGCTAC)”, the “recombinant UMI read abundance (log10)” value was 0.745.
With “AGTAGAACATGGACCGGTTTTCCCGGTAATCCGTATTTGAG (site AATAGAACTCT)” the “recombinant UMI read abundance (log10)” value was 0.806.
With “AGTAGAACATGGACCGGTTTTCCCGGTAATCCGTATTTGAG (site ACTAGAACTCT)” the “recombinant UMI read abundance (log10)” value was 0.901.
For “AGTAGAACATGGACCGGTTTTCCCGGTAATCCGTATTTGAG (site AGTAGAACTCT)”, the “recombinant UMI read abundance (log10)” value was 1.24.
For “AGTAGAACATGGACCGGTTTTCCCGGTAATCCGTATTTGAG (site ATTAGAACTCT)”, the “recombinant UMI read abundance (log10)” value was 0.418.
In the case of “AGTAGCTCATGGACCGGTTTTCCCGGTAATCCGTATTTGGC (site AGTAGCTCTGC)”, the “recombinant UMI read abundance (log10)” value is reported as 2.79.
For “AGTAGTACATGGACCGGTTTTCCCGGTAATCCGTATTTGGT (site AGTAGTACTAC)”, the “recombinant UMI read abundance (log10)” value was 0.706.
For “AGTAGTGCATGGACCGGTTTTCCCGGTAATCCGTATTTGGT (site AATAGTGCTAC)”, the “recombinant UMI read abundance (log10)” value was 0.246.
For “AGTAGTGCATGGACCGGTTTTCCCGGTAATCCGTATTTGGT (site ACTAGTGCTAC)”, the “recombinant UMI read abundance (log10)” value was 0.699.
With “AGTAGTGCATGGACCGGTTTTCCCGGTAATCCGTATTTGGT (site AGTAGTGCTAC)” the “recombinant UMI read abundance (log10)” value was 1.3.
With “AGTAGTGCATGGACCGGTTTTCCCGGTAATCCGTATTTGGT (site ATTAGTGCTAC)” the “recombinant UMI read abundance (log10)” value was 0.00696.
In the case of “AGTATTTCATGGACCGGTTTTCCCGGTAATCCGTATTTGAG (site AGTATTTCTCT)”, the “recombinant UMI read abundance (log10)” value is reported as 1.39.
With “AGTCAGACATGGACCGGTTTTCCCGGTAATCCGTATTTGGC (site AGTCAGACTGC)” the “recombinant UMI read abundance (log10)” value was 2.34.
With “AGTCCGACATGGACCGGTTTTCCCGGTAATCCGTATTTGTC (site AGTCCGACTGA)” the “recombinant UMI read abundance (log10)” value was 0.624.
With “AGTCGTACATGGACCGGTTTTCCCGGTAATCCGTATTTGGA (site AGTCGTACTTC)” the “recombinant UMI read abundance (log10)” value was 0.529.
For “AGTCTGGCATGGACCGGTTTTCCCGGTAATCCGTATTTGAA (site AGTCTGGCTTT)”, the “recombinant UMI read abundance (log10)” value was 1.19.
For “AGTCTTACATGGACCGGTTTTCCCGGTAATCCGTATTTGGT (site AGTCTTACTAC)”, the “recombinant UMI read abundance (log10)” value was 1.14.
With “AGTGCCGCATGGACCGGTTTTCCCGGTAATCCGTATTTGGG (site AGTGCCGCTCC)” the “recombinant UMI read abundance (log10)” value was 0.025.
For “AGTGTAACATGGACCGGTTTTCCCGGTAATCCGTATTTGCT (site AATGTAACTAG)”, the “recombinant UMI read abundance (log10)” value was 1.36.
In the case of “AGTGTAACATGGACCGGTTTTCCCGGTAATCCGTATTTGCT (site ACTGTAACTAG)”, the “recombinant UMI read abundance (log10)” value is reported as 1.47.
For “AGTGTAACATGGACCGGTTTTCCCGGTAATCCGTATTTGCT (site AGTGTAACTAG)”, the “recombinant UMI read abundance (log10)” value was 1.94.
For “AGTGTAACATGGACCGGTTTTCCCGGTAATCCGTATTTGCT (site ATTGTAACTAG)”, the “recombinant UMI read abundance (log10)” value was 1.12.
For “AGTGTCTCATGGACCGGTTTTCCCGGTAATCCGTATTTGAG (site AGTGTCTCTCT)”, the “recombinant UMI read abundance (log10)” value was 1.2.
